Assay results from patent US20240183860A1, “Chimeric ABC Transporters and Screening Methods” (Genentech, Inc., priority 2021, published 2024).
Bridge positions count the residues as written; N and C are the ends. Square brackets hold non-standard residues; d marks the D form. Peptide text beside a SMILES is read from it. Bip = N[C@@H](Cc1ccc(-c2ccccc2)cc1)C(=O)O; NMeF = CN[C@@H](Cc1ccccc1)C(=O)O; NMeA = CN[C@@H](C)C(=O)O; Sar = CNCC(=O)O

Experiments:
[1] = molecular target: T1, EcMsbA-chim5 (MsbA-chimera5) (Escherichia coli, UniProt P60752, D53T/D54Y/D60K/DEL268-292/DEL57-57/F265A/G55I/I169L/INS266[…]/INS66P/K49D/K58D/L171A/L263V/L51V/L52I/M159V/M67L/P68V/S164D/S62H/T59E/V63D/Y163E); assay: biochemical; assay type: biochemical; conditions: ATPase; FIGS. 11D-E
T1 construct: FLAG (N); made in house; host or cells: E. coli Rosetta 2 (DE3), pET-52b vector
Experimental: (§1) The ATPase activity of MsbA was measured using a Transcreener ADP2 FP Assay (BellBrook Labs). […] The final condition for the reaction was MsbA enzyme, 50 μM ATP in 50 mM Tris pH 7.5, 10 mM MgCl2, 1% glycerol, 0.1% bovine gamma globulin, 1 mM dithiothreitol (DTT), 0.007% Brij-35 and 0.5% dimethylsulfoxide (DMSO). The following concentrations were used for each MsbA variant: 5 nM of EcMsbA, EnMsbA, KpMsbA and 80 nM PaMsbA reconstituted in amphipol, 15 nM EcMsbA and EcMsbA-chim5 in LMNG detergent, 22 nM EcMsbA and 27 nM EcMsbA-12G7 complex in aDDM detergent. The enzyme reaction was incubated for 1 hour at room temperature, then quenched by adding the Transcreener Detection Buffer. The IC50 was determined by fitting the inhibition dose-response curve with a nonlinear four-parameter inhibition model (GraphPad Prism).

E. coli MsbA (EcMsbA) = molecular target: T2, E. coli MsbA (EcMsbA) (Escherichia coli, UniProt P60752); assay: MsbA ATPase assay (Transcreener ADP2 FP); assay type: biochemical
T2 construct: FLAG (N); made in house; host or cells: E. coli (strain for the WT protein not restated)
Experimental: as §1

[2] = system: WT E. coli cells with an intact outer membrane (CFT073, UPEC WT); assay: Cellular IC50 determination (BacTiter-Glo, 6 hours); assay type: cell-based, Escherichia coli
Experimental: The cellular IC50's of various bacterial strains (Table 2) were determined.
200 nL aliquots of eight 2-fold dilutions of each compound were dispensed in duplicate into 384-well plates using an Echo Liquid Handler (Labcyte). Strains were grown in cation-adjusted Mueller Hinton Broth with 0.002% Tween overnight for 16 hours, washed with PBS, resuspended at OD600=1 in cation-adjusted Mueller Hinton Broth with 0.002% Tween and 10% glycerol, and frozen in […] aliquots. For each experiment, aliquots were thawed on ice and diluted 1:1000 into cation-adjusted Mueller Hinton Broth with 0.002% Tween. 10 μL cells/well were added to 384-well plates containing compound. Plates were incubated for 6 hours at 37° C., then 10 μL BacTiter-Glo reagent (Promega) was added to each well and luminescence was measured. IC50's were calculated using Genedata Screener software.

[3] = system: imp E. coli (lptD(imp4213)), E. coli MsbA; assay: Broth MIC assay; assay type: cell-based, Escherichia coli; conditions: Table 5 prints no unit; μM
Experimental: Broth MICs were determined in cation-adjusted Mueller-Hinton broth with 0.002% Tween-80, as previously described (Ho et al., 2018).

[4] = molecular target: T3, EcMsbA-chim5 (MsbA-chimera5) (Escherichia coli, UniProt P60752, D53T/D54Y/D60K/DEL268-292/DEL57-57/F265A/G55I/I169L/INS266IAYAGNRVIHEDMRSGALIAFIAAL/INS66P/K49D/K58D/L171A/L263V/L51V/L52I/M159V/M67L/P68V/S164D/S62H/T59E/V63D/Y163E); assay: biochemical; assay type: biochemical
T3 construct: FLAG (N); made in house; host or cells: E. coli Rosetta 2 (DE3), pET-52b vector
Experimental: as §1

[5] = molecular target: T4, Pseudomonas aeruginosa MsbA (PaMsbA) (Pseudomonas aeruginosa, UniProt Q9HUG8); assay: MsbA ATPase assay, amphipol-reconstituted homologue; assay type: biochemical
T4 construct: FLAG; made in house; host or cells: not restated ('similarly expressed')
T4 sequence (Q9HUG8 1-603): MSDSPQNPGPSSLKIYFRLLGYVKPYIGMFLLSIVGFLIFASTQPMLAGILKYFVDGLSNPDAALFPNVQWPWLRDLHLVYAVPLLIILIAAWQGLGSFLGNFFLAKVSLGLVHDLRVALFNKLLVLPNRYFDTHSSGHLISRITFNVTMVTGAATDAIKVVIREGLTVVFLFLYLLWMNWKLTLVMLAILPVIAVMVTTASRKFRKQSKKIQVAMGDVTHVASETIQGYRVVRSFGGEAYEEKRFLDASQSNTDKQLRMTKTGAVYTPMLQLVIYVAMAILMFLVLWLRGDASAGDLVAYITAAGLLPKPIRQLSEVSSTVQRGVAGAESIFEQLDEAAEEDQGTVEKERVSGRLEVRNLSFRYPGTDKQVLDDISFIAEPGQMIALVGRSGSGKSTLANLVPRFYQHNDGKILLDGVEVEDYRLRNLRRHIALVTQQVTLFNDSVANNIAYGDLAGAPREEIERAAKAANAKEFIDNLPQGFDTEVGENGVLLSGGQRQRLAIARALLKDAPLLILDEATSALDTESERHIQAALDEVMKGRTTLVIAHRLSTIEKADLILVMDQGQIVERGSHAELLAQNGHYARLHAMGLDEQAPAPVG
Experimental: as §1

[6] = molecular target: T5, Escherichia coli MsbA (wild-type) (Escherichia coli), P60752; assay: cell-based or functional assay
T5 chain: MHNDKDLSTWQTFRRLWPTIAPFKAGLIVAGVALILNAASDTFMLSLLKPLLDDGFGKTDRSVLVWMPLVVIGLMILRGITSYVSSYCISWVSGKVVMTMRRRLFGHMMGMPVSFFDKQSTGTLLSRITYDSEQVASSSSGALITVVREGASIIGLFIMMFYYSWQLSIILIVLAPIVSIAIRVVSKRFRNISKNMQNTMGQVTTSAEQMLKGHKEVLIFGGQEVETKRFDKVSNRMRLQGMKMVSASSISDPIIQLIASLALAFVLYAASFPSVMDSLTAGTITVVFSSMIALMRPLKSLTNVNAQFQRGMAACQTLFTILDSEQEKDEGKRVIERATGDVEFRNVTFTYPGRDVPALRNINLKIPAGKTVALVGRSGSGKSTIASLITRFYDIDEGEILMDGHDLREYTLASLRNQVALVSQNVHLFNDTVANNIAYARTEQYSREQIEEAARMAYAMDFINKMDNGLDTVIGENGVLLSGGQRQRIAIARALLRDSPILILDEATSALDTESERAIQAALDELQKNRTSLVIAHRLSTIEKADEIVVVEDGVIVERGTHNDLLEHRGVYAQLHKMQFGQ

[7] = molecular target: T6, E. coli MsbA-chimera5 (chimera of Escherichia coli MsbA and Magnetospira strain-QH-2 MsbA), P60752; assay: cell-based or functional assay
T6 chain: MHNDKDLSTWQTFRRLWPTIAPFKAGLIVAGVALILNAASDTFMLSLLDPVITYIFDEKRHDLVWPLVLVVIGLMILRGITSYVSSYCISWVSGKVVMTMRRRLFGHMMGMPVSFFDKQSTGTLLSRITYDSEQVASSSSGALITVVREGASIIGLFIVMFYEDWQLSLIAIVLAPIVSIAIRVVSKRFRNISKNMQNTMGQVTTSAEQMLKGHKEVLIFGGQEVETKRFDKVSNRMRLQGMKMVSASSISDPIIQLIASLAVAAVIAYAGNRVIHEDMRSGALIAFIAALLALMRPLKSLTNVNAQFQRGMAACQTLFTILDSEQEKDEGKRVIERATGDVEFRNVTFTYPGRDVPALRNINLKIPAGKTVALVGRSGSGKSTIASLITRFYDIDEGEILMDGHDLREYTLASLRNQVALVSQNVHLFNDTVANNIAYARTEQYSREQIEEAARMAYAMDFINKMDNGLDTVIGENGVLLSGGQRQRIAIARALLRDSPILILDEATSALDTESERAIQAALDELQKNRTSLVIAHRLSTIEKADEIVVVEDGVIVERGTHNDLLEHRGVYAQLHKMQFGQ

[8] = molecular target: T7, Pseudomonas aeruginosa MsbA (Pseudomonas aeruginosa), Q9HUG8; assay: cell-based or functional assay
T7 chain: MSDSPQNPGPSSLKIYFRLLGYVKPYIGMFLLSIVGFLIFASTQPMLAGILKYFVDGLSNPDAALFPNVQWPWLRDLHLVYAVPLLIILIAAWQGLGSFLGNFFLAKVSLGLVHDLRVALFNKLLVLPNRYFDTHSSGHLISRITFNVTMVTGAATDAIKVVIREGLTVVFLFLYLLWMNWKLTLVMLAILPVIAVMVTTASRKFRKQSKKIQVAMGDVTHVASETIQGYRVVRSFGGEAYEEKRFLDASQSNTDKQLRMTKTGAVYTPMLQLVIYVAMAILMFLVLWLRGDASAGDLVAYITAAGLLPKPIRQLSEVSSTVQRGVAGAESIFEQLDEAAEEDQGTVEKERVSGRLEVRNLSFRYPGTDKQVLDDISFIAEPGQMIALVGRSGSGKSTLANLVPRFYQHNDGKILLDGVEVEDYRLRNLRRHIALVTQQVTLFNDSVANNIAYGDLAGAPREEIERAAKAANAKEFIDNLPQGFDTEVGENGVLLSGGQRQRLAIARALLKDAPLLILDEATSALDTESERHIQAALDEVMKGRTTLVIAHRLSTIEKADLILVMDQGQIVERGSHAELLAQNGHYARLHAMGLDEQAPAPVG

[9] = molecular target: Enterobacter cloacae MsbA (Enterobacter cloacae); assay: cell-based or functional assay
[10] = molecular target: Klebsiella pneumoniae MsbA (Klebsiella pneumoniae); assay: cell-based or functional assay
[11] = IC50 for inhibition of ATPase activity of MsbA, experiment of FIG. 3F / b233

Molecule: CC1CCN(CC(=O)Nc2ccc(C#N)nc2C(=O)c2ncccc2F)CC1 [Compound G758, N-(6-cyano-2-(3-fluoropicolinoyl)pyridin-3-yl)-2-(4-methylpiperidin-1-yl)acetamide, reference compound]
- sensitivity of MsbA-chim5 to previously identified small-molecule inhibitors [1]: displayed sensitivity

Molecule: CC(C)C[C@@H]1NC(=O)[C@H](Cc2c[nH]c3ccccc23)NC(=O)[C@H](Cc2c[nH]c3ccccc23)NC(=O)[C@H](Cc2ccccc2)NC(=O)CSC[C@@H](C(N)=O)NC(=O)[C@H](C(C)C)NC(=O)[C@H](Cc2ccccc2)N(C)C(=O)[C@H](Cc2c[nH]c3ccccc23)NC(=O)[C@H](Cc2c[nH]c3ccccc23)NC(=O)[C@H](CC(=O)O)NC(=O)CN(C)C(=O)[C@H](CC(=O)O)NC(=O)[C@H](CO)NC(=O)[C@H](Cc2c[nH]c3ccccc23)NC1=O [Compound G1119] ({CH2CO}-FWWLWSD[Sar]DWW[NMeF]VC-NH2; thioether N-14)
- IC50 (E. coli MsbA (EcMsbA); [11]): 5 nM

Molecule: CC(C)C[C@@H]1NC(=O)CNC(=O)[C@H](Cc2c[nH]c3ccccc23)NC(=O)[C@H](C)N(C)C(=O)[C@H](Cc2c[nH]c3ccccc23)NC(=O)[C@H](CC(C)C)NC(=O)[C@H](Cc2ccc(O)cc2)NC(=O)[C@H](CCCNC(=N)N)NC(=O)[C@H](Cc2ccccc2)NC(=O)CSC[C@@H](C(N)=O)NC(=O)[C@H](CC(N)=O)NC(=O)[C@H](CC(=O)O)NC(=O)[C@H](Cc2c[nH]c3ccccc23)NC(=O)[C@H](C(C)C)NC1=O [Compound G1122] ({CH2CO}-FRYLW[NMeA]WGLVWDNC-NH2; thioether N-14)
- IC50 (E. coli MsbA (EcMsbA); [11]): 2 nM

Molecule: CC(C)[C@@H]1NC(=O)[C@H](CCCNC(=N)N)NC(=O)[C@H](Cc2ccccc2)N(C)C(=O)[C@H](Cc2ccc(-c3ccccc3)cc2)NC(=O)[C@H](Cc2ccc(O)cc2)NC(=O)[C@H](C(C)C)NC(=O)[C@H](Cc2ccccc2)NC(=O)CSC[C@@H](C(N)=O)NC1=O [Compound G1365, ClAc-FVYBphMeFRVCNH2] ({CH2CO}-FVY[Bip][NMeF]RVC-NH2; thioether N-8)
- EC50 ([2]; dose response on imp MsbAWT, imp MsbA High and UPEC WT, b248: EC50 for wild-type E. coli cells, read-out: EC50, FIGS. 3G-L): 20000 nM
- IC50 ([2]; over the course of 6 hours, read-out: IC50, inhibition of growth of WT E. coli cells with an intact outer membrane): ~20000 nM
- imp Strain MICs: imp, E.coli MsbA [3]: 12.5 µM
- IC50 [4]: > 5000 nM
- IC50 (E. coli MsbA (EcMsbA); ATPase inhibitory activity on WT EcMsbA, IC50, purified WT EcMsbA, FIG. 3D): 1300 nM
- IC50 (E. coli MsbA (EcMsbA); biochemical IC50, FIGS. 3G-L, 8-10 mer macrocycle series experiment): 300 nM
- IC50 [5]: 7600 nM

Molecule: FWWLWDDVSWWFVC (modifications not checked) [G1118]
- IC50, ATPase activity of purified EcMsbA [6]: 110 nM
- IC50 for inhibition of ATPase activity of MsbA [6]: 5 nM
- minimum inhibitory concentration (MIC), E. coli cells with the lptD(imp4213) allele [6]: 210 µg/mL
- IC50, ATPase activity of purified MsbA-chim5 [7]: > 5000 nM
- fold lower potency than on EcMsbA (ATPase) [7]: > 30 fold
- IC50, ATPase activity [8]: 3100 nM
- IC50, ATPase activity [9]: 240 nM
- IC50, ATPase activity [10]: 120 nM
